Test results: patent US12018327B2, “Methods and compositions relating to epoxide hydrolase genes” (The Regents of the University of California, priority 2018, dated 2024)

Assays:
CRA-challenged mice = experiment: Cockroach antigen (CRA) airway sensitization and challenge model; assay type: in vivo; settings: for frequency of lung resident alveolar macrophages (CD11c+CD11b+F4/80+Siglec-F+): compared to vehicle treated
Protocol: Six-week-old female C57B6 mice were obtained from Jackson Laboratories (Sacramento, CA). Mice were treated on days 1, 2, 3, 14, and 21 with 30 mg kg^−1 12,13 DiHOME solubilized in 10% DMSO or vehicle (10% DMSO) by peritoneal injection. Three hours after injection, mice were challenged intra-tracheally with either PBS or CRA (20,000 PNU mL^−1; Greer, Lenoir, NC). Twenty-four hours after the final challenge mice were anesthetized, injected retro-orbitally with 100 μL CD45-APC (1:10), allowed to recover from anesthesia, and subsequently sacrificed. Lungs and plasma were collected. Serum was isolated, and serum IgE levels were measured using a Mouse IgE ELISA Max kit (Biolegend, San Diego, CA).
Lungs were sent to the Mouse Pathology Core at UCSF for H&E staining of paraffin-embedded tissue sections. Two bronchioles and two vessels from each stained tissue section were scored on a 0-4 scale with 0, representing structures with no inflammatory infiltrates; 1, representing few inflammatory cells; 2, representing a ring 1 cell-layer wide; 3, representing a ring 2-4 cells wide; and 4, representing a ring of inflammatory cells more than 4 cells wide. Each structure was scored by two blinded-individuals, and scores were averaged for each animal. Cell counts were determined for each structure. In brief, the ImageJ freehand selection tool was used to trace the perimeter of each bronchiole and vessel. The area extending beyond the perimeter of the vessel was cleared, and the color threshold of the image was adjusted using the default method with the following parameters: hue=0-255, saturation=0-255, brightness=130-255, threshold color=white, background=dark, color space=HSB. The image was converted to an 8-bit grey scale, and the threshold was adjusted using the B&W defaults and a range of 0-150. Counts were outlined and summarized using the analyze particles window (size=0-infinity, circularity=0.0-1.00).
Lung cell subsets were assessed by flow cytometry. Lung tissue was manually dissected, digested with 5 mg per sample collagenase (Sigma-Aldrich, St. Louis, MO), and passed through a […] filter to generate single cell suspensions. […] Gating strategy can be found in FIG. 5C. Regulatory T cells were identified as CD3+CD4+CD25+FoxP3+ cells. The human T cell gating strategy was also applied to mouse lungs. A representative flow plot can be found in FIG. 5D.
Lung tissue was preserved in RNAlater (Ambion, Foster City, CA). Preserved lung tissue was homogenized in Lysing Matrix E Tubes using a FastPrep 24 Homogenizer (MP Biomedicals, Santa Ana, CA) and extracted using an RNAeasy Mini Kit (Qiagen, Germantown, MD). qPCR was performed on lung tissue, as described above, to evaluate expression of IL1α, IL1β, and TNF relative to GAPDH.

human DCs = experiment: IL-10 secretion from human DCs, cytometric bead array; assay type: cell-based
Protocol: IL-10 secretion was measured using a cytometric bead array (BD Biosciences, San Jose, CA). Human DCs were isolated from the peripheral blood mononuclear cells (PBMCs) of two healthy human donors as previously described and treated with increasing concentrations of 12,13 DiHOME (Cayman Chemical, Ann Arbor, MI) solubilized in 0.2% dimethylsulfoxide (DMSO). […] IL-10 concentrations were determined according to the manufacturer's instructions.

[1] = system: human DCs (CD3-CD19-CD11c+); experiment: Human DC maturation by flow cytometry (PPARγ-regulated proteins); assay type: cell-based
Protocol: Human DC maturation was assessed by flow cytometry. PBMCs were isolated from two healthy human donors using Ficoll-Hypaque gradient centrifugation as previously described and cultured for five days in the presence of 20 ng mL^−1 IL-4 and 10 ng mL^−1 GM-CSF. Monocytic DCs (DCs) were defined as CD3-CD19-CD11c+. The DC gating strategy can be found in FIG. 4E.

[2] = Quantification of 12,13 DiHOME in lungs and plasma by LC-MS after peritoneal injection; assay type: in vivo, mice; settings: 30 mg kg^−1 peritoneal, vs vehicle
Protocol: For quantification of 12,13 DiHOME in the lungs and plasma, six-week-old female C57B6 mice were purchased from Jackson Laboratories (Sacramento, CA) and treated with 30 mg kg^−1 12,13 DiHOME solubilized in 10% DMSO or vehicle (10% DMSO) by peritoneal injection. Three hours after a single injection mice were sacrificed, and lung tissue and plasma were collected and frozen immediately in liquid nitrogen. 12,13 DiHOME was extracted from tissue and plasma using an established solid phase extraction protocol. In brief, flash frozen tissue was massed and added to a Lysing Matrix E Tube (MP Biomedicals, Santa Ana, CA) containing 1 mL of methanol, 10 μL 0.2 mg mL^−1 BHT/EDTA, and 1.25 ng 12,13 DiHOME-D4 (Cayman Chemical, Ann Arbor, MI) then homogenized as described above. Tissue samples were spun for 10 minutes at 2125×g, and supernatant was transferred to a falcon tube containing 19 mL deionized water to generate a 5% methanol solution. Plasma samples were thawed on ice, and 10 μL 0.2 mg mL^−1 BHT/EDTA and 1.25 ng 12,13 DiHOME-D4 were added to 250 μL of thawed plasma. All samples were extracted using a Waters Oasis HLB Cartridges (60 mg of sorbent, […] particle size; Waters, Milford, MA) as previously described. […]

[3] = 30 mg kg^−1 peritoneal, CRA-challenged, vs vehicle treated PBS or CRA challenged
[4] = CRA challenged, vs vehicle treated PBS or CRA challenged
[5] = CRA-challenged, vs vehicle treated PBS or CRA challenged
[6] = H&E lung sections, 0-4 scale, vs vehicle treated PBS or CRA challenged

CCCCCC(O)C(O)C/C=C\CCCCCCCC(=O)O (centres unmarked) [12,13 DiHOME]
expression of IL1β in lung (CRA-challenged mice; [3]): increased | frequency of lung resident T cells (CD3+) (CRA-challenged mice; [3]): increased | number of infiltrating cells surrounding the bronchioles (CRA-challenged mice; [3]): increased | number of infiltrating cells surrounding the veins (CRA-challenged mice; [3]): increased | lung Treg frequency (CRA-challenged mice; 30 mg kg^−1 peritoneal, CRA-challenged, vs vehicle-treated CRA-challenged): decreased | serum IgE (CRA-challenged mice; 30 mg kg^−1 peritoneal, vs CRA-challenged and PBS-challenged animals): increased | expression of IL1α in lung (CRA-challenged mice; [4]): increased | expression of TNF in lung (CRA-challenged mice; [4]): increased | frequency of live resident cells in the lungs (CRA-challenged mice; [5]): did not increase | frequency of lung resident monocytes (F4-80+Ly6C+Ly6G-CD11b+) (CRA-challenged mice; [5]): significantly increased | frequency of lung resident neutrophils (Ly6G+CD11b+) (CRA-challenged mice; [5]): significantly increased | frequency of resident lung cells (CRA-challenged mice; [5]): decreased | peribronchial inflammation score (CRA-challenged mice; [6]): increased | perivascular inflammation score (CRA-challenged mice; [6]): increased | frequency of lung resident alveolar macrophages (CD11c+CD11b+F4/80+Siglec-F+) (CRA-challenged mice; CRA challenged animals): decreased | frequency of lung resident alveolar macrophages (CD11c+CD11b+F4/80+Siglec-F+) (CRA-challenged mice; PBS challenged animals): increased | IL-10 secretion 24 hours after treatment (human DCs; 130 μM, 24 hr): significant decreases | IL-10 secretion 48 hours after treatment (human DCs; 130 μM, 48 hr): significant decreases | IL-10 secretion from human DCs (human DCs; 75, 130, 200 μM, supernatant after 24 hours): dose-dependent decrease | expression of CD36 on DCs ([1]; high concentrations (200 μM)): increase | cell viability ([1]; human DCs, flow cytometry): did not alter | expression of CCR7 on DCs ([1]; increasing doses): significant decrease | expression of CD1a on DCs ([1]; increasing doses): significant decrease | expression of CD80 on DCs ([1]; increasing doses): significant decrease | concentration of 12,13 DiHOME in the lungs ([2]; 3 hours post-delivery): significantly increased | concentration of 12,13 DiHOME in the plasma ([2]; three hours after injection): significantly increased
